Patent publication US20230349922A1, “H2 Blockers Targeting Liver Macrophages for the Prevention and Treatment of Liver Disease and Cancer” (Université de Strasbourg, priority 2020, published 2023)

How the values were obtained:
HRH2/cAMP/PKA axis = assay: PLS assessment upon perturbation of the HRH2/cAMP/PKA axis in Huh7.5.1dif cells; assay type: cell-based, human; details: 48 hours, histamine 10 μM, 8-CPT cAMP 100 μM, H89 10 μM
Procedure: Histamine, 8-CPT, cAMP and H89 Treatment. Huh7.5.1^dif cells were cultured in DMEM containing 1% FBS and 1% DMSO and incubated with histamine (10 μM) or histamine+nizatidine (10 μM) for 48 hours. Fresh medium containing histamine was replenished every 12 hours. For 8-CPT cAMP and H89, Huh7.5.1^dif cells cultured in DMEM 1% DMSO and 1% FBS were incubated with 8-CPT cAMP (100 μM), H89 (1 μM) or DMSO as a control for 48 hours. Fresh medium containing 8-CPT cAMP was replenished every 12 hours.
Transcriptomic Analysis and PLS Calculation. Gene expression profiling and the 32 gene PLS 32 profiling were performed using 250-500 ng total RNA by using either nCounter Digital Analyzer system (NanoString) or the HumanHT-12 beadarray (Illumina) for the time-course experiments. PLS gene expression was normalized according to 6 housekeeping gene expression using GenePattern genomic analysis toolkits (Hoshida, PLOS ONE, 2010, 5: e15543; Peck et al., Genome Biol., 2006, 7: R61; Reich et al., Nature Genet., 2006, 38: 500-501). Induction or suppression of PLS risk signature was determined as previously reported by using Gene Set Enrichment Analysis (GSEA), implemented in GenePattern genomic analysis toolkits (Hoshida, PLOS ONE, 2010, 5: e15543; Peck et al., Genome Biol., 2006, 7: R61; Reich et al., Nature Genet., 2006, 38: 500-501). PLS was always determined by using CTRL cells as references. Results are presented as simplified heatmaps showing the classification of PLS global status as poor or good prognosis and the significance of induction/suppression of PLS genes (log 10 of false discovery rate (FDR) values). For each experiment, heatmaps show: in the upper part: the classification of PLS global status as poor (orange) or good (green) prognosis, and in the bottom part: the significance of induction (red) or suppression (blue) of PLS poor- or good-prognosis genes. Global status corresponds to the difference between low risk- and high risk-gene expression. The statistic tests, normalized enrichment score (NES) and FDR values are provided for each PLS experiment (poor- and good-prognosis genes variation and global status) in the Source Data file.

HCC = details: one animal model study (Furuta et al., 2008), circumstantial evidence; cited from earlier work
natural killer cell = details: patients with transarterial chemoembolization (Nishiguchi et al., 2003); cited from earlier work
[1] = in vivo; cited from earlier work
[2] = in vivo; cited from earlier work; remark: listed apart in the source
[3] = system: prognostic liver signature (PLS); assay: cPLS model: reversal of the prognostic liver signature in HCV-infected Huh7.5.1dif cells; assay type: cell-based, human; details: Huh7.5.1dif cells infected with HCV Jc1 for 7 days, treated 3 additional days; GSEA
[4] = rodents; cited from earlier work
[5] = system: M1-polarized THP1-derived macrophages; assay: RNA-Seq / GSEA of M1-polarized THP1-derived macrophages treated with Oxmetidine; assay type: cell-based, human
Procedure: M1 Macrophage Polarization and HRH2 Blocker Treatment. THP1 cells were cultured in RPMI 1640 Medium with GlutaMAX™-I supplement and HEPES and supplemented with 10% FBS and gentamycin (0.05 mg/mL). M1 macrophage polarization from THP-1 was performed as previously described (Yeung et al., J. Hepatol., 2015, 62: 607-616). To generate MO THP-1 macrophages, THP1 cells were treated with PMA 320 nM for 24 hours. To generate M1-polarized THP-1 macrophages, THP-1 cells were treated with […] then with 100 ng/ml LPS and 20 ng/ml IFNγ for 18 hours. Cells then were treated with HRH2 blockers 20 μM or DMSO vehicle for 72 hours.
RNA-Seq of M1 macrophages. RNA-Seq was performed on total RNA from MO macrophages, M1-polarized macrophages, and M1-polarized macrophages treated with Oxmetidine, Nizatidine or DMSO (triplicates). RNA-Seq was performed by the Biomedical Sequencing Facility (BSF) CEMM Research Center for Molecular Medicine of the Austrian Academy of Sciences, Vienna (Austria). Briefly, RNA-Seq libraries were generated from 300 ng of total RNA using TruSeq Stranded mRNA Sample Preparation Kit (Illumina, Part Number RS-122-2101). Following purification with poly-T oligo attached magnetic beads, the mRNA was fragmented using divalent cations at 94° C. for 2 minutes. The cleaved RNA fragments were copied into first strand cDNA using reverse transcriptase and random primers. Strand specificity was achieved by replacing dTTP with dUTP during second strand cDNA synthesis using DNA Polymerase I and RNase H. Following addition of a single ‘A’ base and subsequent ligation of the adapter on double stranded cDNA fragments, the products were purified and enriched with PCR (30 seconds at 98° C.; [10 seconds at 98° C., 30 seconds at 60° C., 30 seconds at 72° C.]×12 cycles; 5 minutes at 72° C.) to create the cDNA library. Surplus PCR primers were further removed by purification using AMPure XP beads (Beckman Coulter) and the final cDNA libraries were checked for quality and quantified using 2100 Bioanalyzer (Agilent). Libraries were sequenced on the Illumina HiSeq 4000 as Single-Read 50 base reads following Illumina's instructions. Image analysis and base calling were performed using RTA v2.7.3 and bcl2fastq v2.17.1.14.

[6] = Farup, Scand. J. Gastroenterol., 1988; cited from earlier work
[7] = system: patient-derived HCC tumor spheroids; assay: Cell viability (ATP, CellTiter-Glo) of patient-derived HCC tumorspheroids; assay type: cell-based, human; details: sorafenib 10 μM, 4 days; some of the patient tumors
Procedure: Patient-Derived HCC Tumor Spheroids. Tumorspheroids were generated from liver tissues from HCC patients undergoing surgical resection and dissociated using the Human Tumor Dissociation Kit. Total cell populations including epithelical (i.e., cancer cells/hepatocytes) and NPCs were used to generate multicellular tumorspheroids in Corning® 96-well Black/Clear Bottom Low Flange Ultra-Low Attachment Microplates (Corning). After 48 hours, HCC-derived spheroids were treated with nizatidine 50 μM, sorafenib 10 μM or DMSO vehicle control for 4 days. Fresh medium containing DMSO or drugs was added every day. Cell viability was assessed using CellTiter-Glo® (Luminescent Cell Viability Assay), according to manufacturer's instruction.

[8] = Oxmetidine vs DMSO, 72 hours, GSEA
[9] = Oxmetidine vs DMSO, 72 hours, GSEA, in contrast to Nizatidine
[10] = single gene level, top 10 of Oxmetidine modulated genes

**Q.** Which “PLS poor-prognosis status upon perturbation of the HRH2/cAMP/PKA axis” value (HRH2/cAMP/PKA axis) does the source give for `Nc1ncnc2c1nc(Sc1ccc(Cl)cc1)n2[C@@H]1O[C@@H]2COP(=O)(O)O[C@H]2[C@H]1O` [8-CPT-cAMP] here?
**A.** induction of the poor-prognosis status of the PLS

**Q.** With `CN/C(=N/CCSCc1nc[nH]c1C)NC#N` [Cimetidine] as the compound, how does the anti-HCC effect (HCC) read?
**A.** anti-HCC effect

**Q.** What about the “natural killer cell activity in peripheral blood” value (natural killer cell) of the same compound?
**A.** improves natural killer cell activity in peripheral blood

**Q.** What does the source list for `NC(N)=Nc1nc(CSCCN/C=N/S(=O)(=O)c2ccc(Br)cc2)cs1` [Ebrotidine, 4-bromo-N-[[[2-[[[2-[(diaminomethylene)amino]-4-thiazolyl]methyl]thio]ethyl]amino]methylene] benzenesulfonamide]?
**A.** efficacy for the treatment of gastric or duodenal ulcers or erosive reflux oesophagitis [1]: as effective as Ranitidine; activity against ethanol-, aspirin- or stress-induced gastric mucosal damage [2]: gastroprotective activity

**Q.** For `NC(N)=Nc1nc(CSCCC(N)=NS(N)(=O)=O)cs1` [Famotidine, 3-[[2-(diaminomethylideneamino)-1,3-thiazol-4-yl]methylsulfanyl]-N′-sulfamoyl-propanimidamide], which “reversal of the poor prognosis status of the prognostic liver signature (PLS)” value [3] is on record?
**A.** partial reversal of the PLS

**Q.** Which “PLS poor-prognosis status upon perturbation of the HRH2/cAMP/PKA axis” value (HRH2/cAMP/PKA axis) does the source give for `O=S(=O)(NCCNC/C=C/c1ccc(Br)cc1)c1cccc2cnccc12` [H89] here?
**A.** reversed the induction of the PLS poor-prognosis status

**Q.** Which gastric carcinoid tumors [4] does the source give for `Cn1nc(CO)nc1NCCCOc1cccc(CN2CCCCC2)c1` [Lavoltidine] here?
**A.** produced gastric carcinoid tumors in rodents

**Q.** Which gastric carcinoid tumors [4] does the source give for `CC(C)/N=C/Nc1ccc(-c2c[nH]cn2)cc1` [Mifentidine, N-(4-(1H-imidazol-4-yl)phenyl)-N′-(1-methylethyl)methanimidamide] here?
**A.** produced gastric carcinoid tumors in rodents

**Q.** With `Cc1[nH]cnc1CSCCNc1ncc(Cc2ccc3c(c2)OCO3)c(=O)[nH]1` [Oxmetidine, 5-(1,3-benzodioxol-5-ylmethyl)-2-[2-[(5-methyl-1H-imidazol-4-yl)methylsulfanyl]ethylamino]-1H-pyrimidin-6-one] as the compound, how does the antigen presentation related-pathways [5, 8] read?
**A.** improves antigen presentation related-pathways

**Q.** And the “pathway mediating inflammation (TNFα, IL6)” value [5, 8]?
**A.** strongly suppresses pathway mediating inflammation

**Q.** And the IFN response [5, 9]?
**A.** strong reduction in IFN response

**Q.** And the cell metabolism [5, 9]?
**A.** improvement of cell metabolism

**Q.** What about the “expression of key genes regulating lipid metabolism (ABCG1, ABCA1, SREBF1)” value [5, 10] of the same compound?
**A.** increase in expression of key genes regulating lipid metabolism

**Q.** And the “pro-inflammatory gene expression (CCL7, CCL2, IL6)” value [5, 10]?
**A.** decrease in pro-inflammatory gene expression

**Q.** For `Cc1ncc(-c2csc(N=C(N)N)n2)[nH]1` [Zaltidine, 2-[4-(2-methyl-1H-imidazol-5-yl)-1,3-thiazol-2-yl]guanidine], which hepatotoxicity [6] is on record?
**A.** hepatotoxic

**Q.** With `NCCc1c[nH]cn1` [histamine] as the compound, how does the “PLS poor-prognosis status upon perturbation of the HRH2/cAMP/PKA axis” value (HRH2/cAMP/PKA axis) read?
**A.** Induction of the PLS poor-prognosis status

**Q.** For `CNC(=O)c1cc(Oc2ccc(NC(=O)Nc3ccc(Cl)c(C(F)(F)F)c3)cc2)ccn1` [sorafenib], which tumor spheroid response [7] is on record?
**A.** did not respond
